{
  "source": "patent US20240335500A1",
  "about": "“CONTROLLING PRO-INFLAMMATORY MACROPHAGE PHENOTYPE THROUGH BIOFUNCTIONAL HYDROGEL DESIGN” (UNIVERSITY OF FLORIDA RESEARCH FOUNDATION, INCORPORATED, priority 2021, published 2024)",
  "key": {"Raw 264.7 macrophages [1]": {"tested_on": "Raw 264.7 macrophages", "test": "Soluble delivery of DGEA to 2D cultures of M1-stimulated macrophages, iNOS/DAPI immunostaining", "assay_type": "cell-based, mouse", "details": "2D culture, M1 media (100 ng/mL LPS, 10 ng/mL IFNγ), 5 mM soluble DGEA, 72 hrs; without DGEA 0.5±0.1; p<0.05", "description": "To establish interactions between DGEA and M1 macrophages, a 2D study was conducted with soluble delivery of DGEA to the media culture. […] 5 mM DGEA was dissolved in the media to assess the effects of DGEA on macrophage activation (S. Y. Yoo, M. Kobayashi, P. P. Lee, and S. W. Lee, “Early osteogenic differentiation of mouse preosteoblasts induced by collagen-derived DGEA-peptide on nanofibrous phage tissue matrices,” Biomacromolecules, vol. 12, no. 4, pp. 987-996, April 2011). After stimulation, the cells were stained for 4′,6-diamidino-2-phenylindole (DAPI) and iNOS (inset (b) of FIG. 1). The addition of 5 mM DGEA in the media reduced the number of iNOS^+ cells, as represented in insets (b) and (c) in FIG. 1. The iNOS^+ cell count was normalized to the number of DAPI^+ cells for each image chosen to be analyzed. […] Polarized iNOS^+ macrophage cells with soluble DGEA were dramatically lower than iNOS^+ macrophage cells without any presence of DGEA. […] ECM-derived peptides have been investigated in cell function. For example, the interaction between collagen and α2β1 integrin is important for the osteoblastic differentiation of bone marrow cells. […]\n(§1) Cells were stimulated with M1 media 24 hrs post-seeding and post-encapsulation. In all studies, the effects of DGEA on the cells were assessed 72 hrs post-stimulation with M1 media by immunocytochemistry (ICC). […]"}, "Raw 264.7 macrophages [2]": {"tested_on": "Raw 264.7 macrophages", "test": "Soluble delivery of DGEA to macrophages encapsulated in 3D control PEG hydrogels, iNOS/DAPI immunostaining", "assay_type": "cell-based, mouse", "details": "3D control hydrogel (3.5 mM PEG-RGDS, 5% PEG-PQ-PEG), 5 mM soluble DGEA in M1 media, 72 hrs; non-significant (p>0.05)", "description": "Raw 264.7 macrophages were encapsulated within the hydrogel. These quiescent M0 macrophages were allowed to equilibrate in the incubator for 24 hrs, after which M1 media was added to stimulate them towards the pro-inflammatory phenotype. At this time, 5 mM DGEA was also dissolved into the media and the samples were incubated for another 72 hrs. The samples were then fixed, stained, imaged, and analyzed. The immunofluorescent images represent DAPI stained cells and iNOS stained cells (inset (b) in FIG. 2). The 3D hydrogels were imaged using a Keyence BZ-X800 microscope and the images represent 2D slices of an entire 3D Z-stack. […] The data were statistically non-significant (p>0.05). […]\nas §1\nImages were quantified based on the number of iNOS^+ cells, normalized to DAPI^+ cells for each condition. Images were analyzed using the “automated cell counting of single color image” feature on ImageJ (NIH) software after a randomized, unbiased selection of images. All images were turned to 8-bit grayscale and threshold to highlight all the cells to be counted. […]"}, "[3]": {"tested_on": "TNFα, IL-6, iNOS gene expression", "test": "RT-PCR of pro-inflammatory gene expression (TNFα, IL-6, iNOS)", "assay_type": "cell-based", "details": "FIG. 7", "text": "The results validate the inflammation inhibiting properties of DGEA by looking at pro-inflammatory gene expressions. The genes assessed include TNFα (a); IL-6 (b); and iNOS (c)."}, "Raw 264.7 macrophages [4]": {"tested_on": "Raw 264.7 macrophages", "test": "iNOS and CD206 expression in M0, M1 and M2 raw 264.7 macrophages encapsulated in control and PEG-DGEA hydrogels", "assay_type": "cell-based, mouse"}, "α2β1 integrin": {"target": "T1, α2β1 integrin (Homo sapiens, UniProt P05556+P17301)", "T1 construct": "Integrin α2β1 appears to play a pivotal role in macrophage polarization by affecting downstream signaling pathways", "T1 sequence (P17301 30-1181)": "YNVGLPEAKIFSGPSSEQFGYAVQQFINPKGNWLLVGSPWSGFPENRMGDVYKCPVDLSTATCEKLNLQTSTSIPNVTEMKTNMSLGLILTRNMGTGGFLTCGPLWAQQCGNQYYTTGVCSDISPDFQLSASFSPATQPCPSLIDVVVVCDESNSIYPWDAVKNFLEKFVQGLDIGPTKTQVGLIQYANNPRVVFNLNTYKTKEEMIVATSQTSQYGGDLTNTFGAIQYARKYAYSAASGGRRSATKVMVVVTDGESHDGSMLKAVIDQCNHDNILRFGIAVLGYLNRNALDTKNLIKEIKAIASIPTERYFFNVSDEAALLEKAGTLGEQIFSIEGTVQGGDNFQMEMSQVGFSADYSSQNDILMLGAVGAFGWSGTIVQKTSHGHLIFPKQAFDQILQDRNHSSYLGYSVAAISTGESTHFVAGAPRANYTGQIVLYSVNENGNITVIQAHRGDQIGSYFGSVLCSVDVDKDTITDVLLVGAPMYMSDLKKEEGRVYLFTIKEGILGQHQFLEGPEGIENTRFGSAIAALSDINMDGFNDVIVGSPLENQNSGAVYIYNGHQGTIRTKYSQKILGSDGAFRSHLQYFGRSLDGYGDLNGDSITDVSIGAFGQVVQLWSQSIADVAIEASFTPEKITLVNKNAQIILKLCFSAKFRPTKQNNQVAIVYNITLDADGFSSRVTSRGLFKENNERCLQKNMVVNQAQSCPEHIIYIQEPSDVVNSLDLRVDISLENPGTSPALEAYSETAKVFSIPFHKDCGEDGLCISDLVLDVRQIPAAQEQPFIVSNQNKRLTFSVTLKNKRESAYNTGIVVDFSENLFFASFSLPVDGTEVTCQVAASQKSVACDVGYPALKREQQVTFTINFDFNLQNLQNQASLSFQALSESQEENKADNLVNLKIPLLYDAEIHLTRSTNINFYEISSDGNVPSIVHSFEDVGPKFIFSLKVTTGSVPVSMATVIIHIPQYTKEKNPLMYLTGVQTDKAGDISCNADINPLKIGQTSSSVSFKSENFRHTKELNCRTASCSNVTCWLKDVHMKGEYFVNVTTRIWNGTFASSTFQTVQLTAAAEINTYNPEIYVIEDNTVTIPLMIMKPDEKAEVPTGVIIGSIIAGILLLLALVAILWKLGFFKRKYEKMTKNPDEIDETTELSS", "T1 sequence (P05556 21-798)": "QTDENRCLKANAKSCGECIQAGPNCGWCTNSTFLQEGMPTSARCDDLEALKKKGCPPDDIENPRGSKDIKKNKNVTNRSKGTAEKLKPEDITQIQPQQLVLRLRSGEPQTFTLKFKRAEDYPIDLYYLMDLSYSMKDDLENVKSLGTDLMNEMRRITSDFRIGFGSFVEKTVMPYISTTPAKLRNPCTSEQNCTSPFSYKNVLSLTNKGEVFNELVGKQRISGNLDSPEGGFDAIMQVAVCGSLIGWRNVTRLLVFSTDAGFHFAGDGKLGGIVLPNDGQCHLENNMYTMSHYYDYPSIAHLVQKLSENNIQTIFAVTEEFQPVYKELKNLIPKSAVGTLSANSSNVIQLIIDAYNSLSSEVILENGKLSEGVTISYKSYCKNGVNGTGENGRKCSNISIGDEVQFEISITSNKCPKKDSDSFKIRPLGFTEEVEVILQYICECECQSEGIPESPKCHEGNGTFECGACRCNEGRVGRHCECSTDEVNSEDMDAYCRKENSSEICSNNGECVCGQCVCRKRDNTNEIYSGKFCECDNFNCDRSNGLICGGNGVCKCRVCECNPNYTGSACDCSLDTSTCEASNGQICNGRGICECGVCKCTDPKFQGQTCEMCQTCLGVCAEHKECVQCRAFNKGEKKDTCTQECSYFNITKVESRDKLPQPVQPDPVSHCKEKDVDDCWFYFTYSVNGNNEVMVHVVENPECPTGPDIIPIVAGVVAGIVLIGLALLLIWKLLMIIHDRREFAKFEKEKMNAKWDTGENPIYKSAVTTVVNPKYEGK", "details": "DGEA-coated plates, Cha et al.; cited from earlier work"}, "bone marrow cells": {"tested_on": "bone marrow cells", "details": "bone marrow cells encapsulated in type I collagen matrix gels, Mizuno et al.; cited from earlier work"}, "platelets": {"tested_on": "platelets", "details": "Luzak et al.; cited from earlier work"}, "ovarian carcinoma cells": {"tested_on": "ovarian carcinoma cells", "details": "Fishman et al.; cited from earlier work"}},
  "data": [
    {"substance": "Asp-Gly-Glu-Ala (DGEA; DGEA peptide sequence)", "values": [
      {"measurement": "iNOS+ M1 activated macrophages as fraction of the total DAPI+ cells", "setting": "Raw 264.7 macrophages [1]", "result": "0.1±0.1"},
      {"measurement": "number of iNOS+ cells (normalized to DAPI+ cells)", "setting": "Raw 264.7 macrophages [2]", "result": "lower than the number of iNOS^+ cells without any DGEA"},
      {"measurement": "expression of pro-inflammatory mediators (TNFα, IL-6, iNOS) by RT-PCR", "setting": "[3]", "result": "significantly reduces expression"},
      {"measurement": "iNOS expression", "setting": "Raw 264.7 macrophages [4]; M0, M1 and M2 macrophages encapsulated in PEG-DGEA vs control hydrogels, FIG. 8", "result": "reduced iNOS expression"},
      {"measurement": "CD206 expression", "setting": "Raw 264.7 macrophages [4]; M1 or M2 macrophage phenotypes in PEG-DGEA hydrogels, FIG. 9", "result": "did not appear to have any significant effects"},
      {"measurement": "expression of CD206 (M2 marker)", "setting": "α2β1 integrin", "result": "higher expression of CD206"},
      {"measurement": "expression of osteoblastic phenotype", "setting": "bone marrow cells", "result": "inhibited the expression of osteoblastic phenotype"},
      {"measurement": "platelet adhesion", "setting": "platelets", "result": "significant inhibition in platelet adhesion"},
      {"measurement": "adhesion of ovarian carcinoma cells to collagen", "setting": "ovarian carcinoma cells", "result": "block adhesion"}
    ]}
  ]
}
